Assay results taken from patent US9675612B2, “Substituted thiazolopyrimidines” (BAYER PHARMA AKTIENGESELLSCHAFT, priority 2013, dated 2017).

Molecular target: human full-length MKNK1 (Homo sapiens (Human), UniProt Q9BUB5, T344D)
Experiment: MKNK1 kinase high ATP assay (TR-FRET)
Type: biochemical
Details: high ATP (2 mM final), 15 min preincubation with MKNK1, TR-FRET
Protocol: MKNK1 Kinase High ATP Assay
MKNK1-inhibitory activity at high ATP of compounds of the present invention after their preincubation with MKNK1 was quantified employing the TR-FRET-based MKNK1 high ATP assay as described in the following paragraphs.
As substrate for the kinase reaction the biotinylated peptide biotin-Ahx-[…] (C-terminus in amide form) was used, which can be purchased e.g. from the company Biosyntan (Berlin-Buch, Germany).
For the assay 50 nL of a 100 fold concentrated solution of the test compound in DMSO was pipetted into a black low volume 384 well microtiter plate (Greiner Bio-One, Frickenhausen, Germany), 2 μL of a solution of MKNK1 in aqueous assay buffer [50 mM HEPES pH 7.5, 5 mM MgCl2, 1.0 mM dithiothreitol, 0.005% (v/v) Nonidet-P40 (Sigma)] was added and the mixture was incubated for 15 min at 22° C. to allow pre-binding of the test compounds to the enzyme before the start of the kinase reaction. Then the kinase reaction was started by the addition of 3 μL of a solution of adenosine-tri-phosphate (ATP, 3.3 mM=>final conc. in the 5 μL assay volume is 2 mM) and substrate (0.1 μM=>final conc. in the 5 μL assay volume is 0.06 μM) in assay buffer and the resulting mixture was incubated for a reaction time of 30 min at 22° C. The concentration of MKNK1 was adjusted depending of the activity of the enzyme lot and was chosen appropriate to have the assay in the linear range, typical concentrations were in the range of 0.003 μg/mL. The reaction was stopped by the addition of 5 μL of a solution of TR-FRET detection reagents (5 nM streptavidine-XL665 [Cisbio Bioassays, Codolet, France] and 1 nM anti-ribosomal protein S6 (pSer236)-antibody from Invitrogen [#44921G] and 1 nM LANCE EU-W1024 labeled ProteinG [Perkin-Elmer, product no. AD0071]) in an aqueous EDTA-solution (100 mM EDTA, 0.1% (w/v) bovine serum albumin in 50 mM HEPES pH 7.5).
The resulting mixture was incubated for 1 h at 22° C. to allow the formation of complex between the phosphorylated biotinylated peptide and the detection reagents. Subsequently the amount of phosphorylated substrate was evaluated by measurement of the resonance energy transfer from the Eu-chelate to the streptavidine-XL.

Chain of human full-length MKNK1 (Q9BUB5 other isoform, or with tags, fused parts or gaps T344D): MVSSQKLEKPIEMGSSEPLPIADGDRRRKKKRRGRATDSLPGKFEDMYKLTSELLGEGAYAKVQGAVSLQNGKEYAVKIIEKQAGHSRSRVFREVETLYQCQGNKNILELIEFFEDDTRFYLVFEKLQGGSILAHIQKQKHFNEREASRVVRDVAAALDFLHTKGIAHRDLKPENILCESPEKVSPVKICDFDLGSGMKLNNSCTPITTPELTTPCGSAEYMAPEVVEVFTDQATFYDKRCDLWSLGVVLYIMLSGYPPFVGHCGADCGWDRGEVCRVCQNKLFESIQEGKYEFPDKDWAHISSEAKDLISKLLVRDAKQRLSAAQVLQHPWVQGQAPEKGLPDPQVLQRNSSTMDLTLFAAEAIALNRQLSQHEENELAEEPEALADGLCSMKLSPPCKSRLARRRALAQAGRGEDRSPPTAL

| IC50 [µM] | Structure (SMILES) |
| --- | --- |
| 0.051 | c1ccc(CCc2nc3c(Nc4ccc5[nH]ncc5c4)ncnc3s2)cc1 [Example 23, N-(1H-indazol-5-yl)-2-(2-phenylethyl)[1,3]thiazolo[5,4-d]pyrimidin-7-amine] |
| 10 | COc1cc2[nH]c(=O)sc2cc1Nc1ncnc2sc(CCc3ccccc3)nc12 [Example 25, 5-Methoxy-6-{[2-(2-phenylethyl)[1,3]thiazolo[5,4-d]pyrimidin-7-yl]amino}-1,3-benzothiazol-2(3H)-one] |
| 0.085 | COc1cc2[nH]ncc2cc1Nc1ncnc2sc(CCCC(=O)N(C)C)nc12 [Example 26, 4-{7-[(6-Methoxy-1H-indazol-5-yl)amino][1,3]thiazolo[5,4-d]pyrimidin-2-yl}-N, N-dimethylbutanamide] |
| 1.08 | COc1cc2[nH]c(=O)sc2cc1Nc1ncnc2sc(C(=O)N(C)C)nc12 [Example 28, 7-[(5-Methoxy-2-oxo-2,3-dihydro-1,3-benzothiazol-6-yl)amino]-N,N-dimethyl[1,3]thiazolo[5,4-d]pyrimidine-2-carboxamide] |
| 0.042 | CCOc1cc2[nH]ncc2cc1Nc1ncnc2sc(C(=O)N(C)C)nc12 [Example 30, 7-[(6-Ethoxy-1H-indazol-5-yl)amino]-N, N-dimethyl[1,3]thiazolo[5,4-d]pyrimidine-2-carboxamide] |
| 0.188 | O=C(c1nc2c(Nc3ccc4[nH]ncc4c3)ncnc2s1)N1CCCCC1 [Example 31, [7-(1H-Indazol-5-ylamino)[1,3]thiazolo[5,4-d]pyrimidin-2-yl](piperidin-1-yl)methanone] |
| 0.137 | O=C(c1nc2c(Nc3ccc4[nH]c(=O)sc4c3)ncnc2s1)N1CCCCC1 [Example 32, 6-{[2-(Piperidin-1-ylcarbonyl)[1,3]thiazolo[5,4-d]pyrimidin-7-yl]amino}-1,3-benzothiazol-2(3H)-one] |
| 0.017 | COc1cc2[nH]ncc2cc1Nc1ncnc2sc(C(=O)N3CCCCC3)nc12 [Example 33, {7-[(6-Methoxy-1H-indazol-5-yl)amino][1,3]thiazolo[5,4-d]pyrimidin-2-yl}(piperidin-1-yl)methanone] |
| 0.034 | CCOc1cc2[nH]ncc2cc1Nc1ncnc2sc(C(=O)N3CCCCC3)nc12 [Example 34, {7-[(6-Ethoxy-1H-indazol-5-yl)amino][1,3]thiazolo[5,4-d]pyrimidin-2-yl}(piperidin-1-yl)methanone] |
| 0.102 | CC(C)Oc1cc2[nH]ncc2cc1Nc1ncnc2sc(C(=O)N3CCCCC3)nc12 [Example 35, Piperidin-1-yl(7-{[6-(propan-2-yloxy)-1H-indazol-5-yl]amino}[1,3]thiazolo[5,4-d]pyrimidin-2-yl)methanone] |
| 0.136 | COc1cc2[nH]ncc2cc1Nc1ncnc2sc(C(=O)N(C)CC(=O)N(C)C)nc12 [Example 38, N-[2-(Dimethylamino)-2-oxoethyl]-7-[(6-methoxy-1H-indazol-5-yl)amino]-N-methyl[1,3]thiazolo[5,4-d]pyrimidine-2-carboxamide] |
| 2.75 | CN(C)C(=O)CCN(C)C(=O)c1nc2c(Nc3ccc4[nH]c(=O)sc4c3)ncnc2s1 [Example 41, N-[3-(Dimethylamino)-3-oxopropyl]-N-methyl-7-[(2-oxo-2,3-dihydro-1,3-benzothiazol-6-yl)amino][1,3]thiazolo[5,4-d]pyrimidine-2-carboxamide] |
| 0.202 | CN(C)C(=O)c1nc2c(Nc3ccc4[nH]ncc4c3)ncnc2s1 [Example 43, 7-(1H-Indazol-5-ylamino)-N,N-dimethyl[1,3]thiazolo[5,4-d]pyrimidine-2-carboxamide] |
| 0.184 | COc1cc2[nH]ncc2cc1Nc1ncnc2sc(C(=O)N(C)CCC(=O)N(C)C)nc12 [Example 46, N-[3-(Dimethylamino)-3-oxopropyl]-7-[(6-methoxy-1H-indazol-5-yl)amino]-N-methyl[1,3]thiazolo[5,4-d]pyrimidine-2-carboxamide] |

Further lines, the compound ahead of its results:

| Structure (SMILES) | IC50 [µM] |
| --- | --- |
| O=c1[nH]c2ccc(Nc3ncnc4sc(CC5CC5)nc34)cc2s1 [Example 1, 6-{[2-(Cyclopropylmethyl)[1,3]thiazolo[5,4-d]pyrimidin-7-yl]amino}-1,3-benzothiazol-2(3H)-one] | 0.037 |
| O=c1[nH]c2ccc(Nc3ncnc4sc(C5CCC5)nc34)cc2s1 [Example 2, 6-[(2-Cyclobutyl[1,3]thiazolo[5,4-d]pyrimidin-7-yl)amino]-1,3-benzothiazol-2(3H)-one] | 0.087 |
| COc1cc2[nH]ncc2cc1Nc1ncnc2sc(Cc3ccccc3)nc12 [Example 4, 2-Benzyl-N-(6-methoxy-1H-indazol-5-yl)[1,3]thiazolo[5,4-d]pyrimidin-7-amine] | 0.02 |
| COCc1nc2c(Nc3cc4cn[nH]c4cc3OC)ncnc2s1 [Example 5, N-(6-Methoxy-1H-indazol-5-yl)-2-(methoxymethyl)[1,3]thiazolo[5,4-d]pyrimidin-7-amine] | 0.025 |
| COc1cc2[nH]c(=O)sc2cc1Nc1ncnc2sc(C3CCCCC3)nc12 [Example 7, 6-[(2-Cyclohexyl[1,3]thiazolo[5,4-d]pyrimidin-7-yl)amino]-5-methoxy-1,3-benzothiazol-2(3H)-one] | 0.354 |
| c1nc(Nc2ccc3[nH]ncc3c2)c2nc(C3CCCCC3)sc2n1 [Example 8, 2-Cyclohexyl-N-(1H-indazol-5-yl)[1,3]thiazolo[5,4-d]pyrimidin-7-amine] | 0.056 |
| c1nc(Nc2ccc3[nH]ncc3c2)c2nc(CC3CC3)sc2n1 [Example 9, 2-(Cyclopropylmethyl)-N-(1H-indazol-5-yl)[1,3]thiazolo[5,4-d]pyrimidin-7-amine] | 0.036 |
| c1nc(Nc2ccc3[nH]ncc3c2)c2nc(C3CCC3)sc2n1 [Example 10, 2-Cyclobutyl-N-(1H-indazol-5-yl)[1,3]thiazolo[5,4-d]pyrimidin-7-amine] | 0.054 |
| c1ccc(Cc2nc3c(Nc4ccc5[nH]ncc5c4)ncnc3s2)cc1 [Example 11, 2-Benzyl-N-(1H-indazol-5-yl)[1,3]thiazolo[5,4-d]pyrimidin-7-amine] | 0.035 |
| CC1(O)CN(C(=O)CCc2nc3c(Nc4ccc5[nH]ncc5c4)ncnc3s2)C1 [Example 14, 1-(3-Hydroxy-3-methylazetidin-1-yl)-3-[7-(1H-indazol-5-ylamino)[1,3]thiazolo[5,4-d]pyrimidin-2-yl]propan-1-one] | 0.126 |
| COc1cc2[nH]ncc2cc1Nc1ncnc2scnc12 [Example 15, N-(6-Methoxy-1H-indazol-5-yl)[1,3]thiazolo[5,4-d]pyrimidin-7-amine] | 0.047 |
| c1nc(Nc2ccc3[nH]ncc3c2)c2ncsc2n1 [Example 16, N-(1H-Indazol-5-yl)[1,3]thiazolo[5,4-d]pyrimidin-7-amine] | 0.186 |
| O=c1[nH]c2ccc(Nc3ncnc4scnc34)cc2s1 [Example 19, 6-([1,3]Thiazolo[5,4-d]pyrimidin-7-ylamino)-1,3-benzothiazol-2(3H)-one] | 0.159 |
| COc1cc2[nH]ncc2cc1Nc1ncnc2sc(COCc3ccccc3)nc12 [Example 20, 2-[(Benzyloxy)methyl]-N-(6-methoxy-1H-indazol-5-yl)[1,3]thiazolo[5,4-d]pyrimidin-7-amine] | 0.036 |
| CN(C)C(=O)CCc1nc2c(Nc3ccc4[nH]ncc4c3)ncnc2s1 [Example 21, 3-[7-(1H-Indazol-5-ylamino)[1,3]thiazolo[5,4-d]pyrimidin-2-yl]-N,N-dimethylpropanamide] | 0.1 |
| COc1cc2[nH]ncc2cc1Nc1ncnc2sc(CCc3ccccc3)nc12 [Example 22, N-(6-Methoxy-1H-indazol-5-yl)-2-(2-phenylethyl)[1,3]thiazolo[5,4-d]pyrimidin-7-amine] | 0.038 |
